Consider one compound from patent US20040192869A1, “Polyvalent imprinted polymer and process of preparation thereof” (priority 2003, published 2004).

This test has as its target lysozyme (Gallus gallus, UniProt P00698). The test is described as follows: Relative inhibition of lysozyme (I50), UV spectrophotometric method with Micrococcus lysodeikticus as substrate. It counts as biochemical. The conditions noted are these: copolymers prepared in absence of lysozyme, and NAG. Here is the method:
This example describes estimation of inhibition concentration (I50) for lysozyme imprinted polyvalent copolymers and polyvalent copolymers prepared in the absence of lysozymne by UV spectrophotometric method. Micrococcus lysodeikticus is a substrate for the enzyme lysozyme. Relative binding of copolYmers was estimated by using a procedure reported by Neuberger and Wilson (1967). 1.5% w/v stock solutions of non imprinted copolymer was prepared in 0.0066 M phosphate buffer pH 6.2 containing 0.0154 M sodium chloride and 0.008 M sodium azide. One milliliter of stock solution containing different copolymer concentration was mixed with 1.6 ml of 78 μg/ml of Micrococcus lysodeikticus in a 3-ml capacity glass cuvette. The mixture was incubated for 5 minutes at 20° C. To this mixture 0.1 ml of lysozyme (27 μg/ml) was added and mixed thoroughly. The relative absorbance at 450 nm (Δ450) was recorded for 30 seconds. A blank reading without the copolymer was noted and the change in the absorbance per second was calculated. Then relative inhibition was calculated.

Each structure is given as a SMILES string.

lysozyme, sequence (P00698 19-147): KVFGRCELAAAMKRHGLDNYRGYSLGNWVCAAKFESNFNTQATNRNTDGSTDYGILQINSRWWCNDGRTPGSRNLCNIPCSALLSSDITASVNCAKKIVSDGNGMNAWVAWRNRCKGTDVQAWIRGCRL

`CC(=O)N[C@H]1C(O)O[C@H](CO)[C@@H](O)[C@@H]1O` (stereo partly drawn) [NAG, N-Acetyl Glucosamine] registered an I max of 55.29. Further, the “I max” value (concentration at maximum inhibition) came out at 92000 nM. In addition, where the note is “read-out: Relative Inhibition Iso (I50)”, the IC50 turned out to be 74 µM.
